Experiments:
[1] = biological target: GDP-bound HRAS wild-type protein (Homo sapiens, UniProt P01112); test: Binding to HRAS by surface plasmon resonance (SPR), Single Cycle Kinetics; conditions: SPR, GDP-bound HRAS wild-type protein vs GDP-bound KRAS wild-type protein
[2] = tested on: human lung cancer strain NCI-H441;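 note: cell proliferation inhibition after four days measured by CellTiter-Glo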
[3] = biological target: GDP-bound NRAS wild-type protein (Homo sapiens, UniProt P01111); test: Binding to NRAS by surface plasmon resonance (SPR), Single Cycle Kinetics; conditions: SPR, GDP-bound NRAS wild-type protein vs GDP-bound KRAS wild-type protein
[4] = biological target: GDP-bound KRAS wild-type protein (Homo sapiens, UniProt P01116); test: Binding to KRAS by surface plasmon resonance (SPR), Single Cycle Kinetics; conditions: SPR, Single Cycle Kinetics, GDP-bound KRAS wild-type protein; read-out: KRAS KD
Chain of GDP-bound KRAS wild-type protein (P01116 whole entry): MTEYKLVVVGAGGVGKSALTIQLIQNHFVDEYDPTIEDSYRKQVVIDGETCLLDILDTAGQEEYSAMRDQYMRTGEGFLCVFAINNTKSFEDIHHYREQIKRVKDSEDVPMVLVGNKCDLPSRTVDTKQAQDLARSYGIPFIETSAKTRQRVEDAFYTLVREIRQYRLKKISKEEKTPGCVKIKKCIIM

Chain of GDP-bound HRAS wild-type protein (P01112 whole entry): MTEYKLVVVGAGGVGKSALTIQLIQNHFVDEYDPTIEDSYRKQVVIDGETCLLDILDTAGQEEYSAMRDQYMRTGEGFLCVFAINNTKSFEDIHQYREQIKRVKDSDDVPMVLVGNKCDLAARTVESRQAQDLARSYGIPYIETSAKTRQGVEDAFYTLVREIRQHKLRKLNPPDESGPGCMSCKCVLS
Chain of GDP-bound NRAS wild-type protein (P01111 whole entry): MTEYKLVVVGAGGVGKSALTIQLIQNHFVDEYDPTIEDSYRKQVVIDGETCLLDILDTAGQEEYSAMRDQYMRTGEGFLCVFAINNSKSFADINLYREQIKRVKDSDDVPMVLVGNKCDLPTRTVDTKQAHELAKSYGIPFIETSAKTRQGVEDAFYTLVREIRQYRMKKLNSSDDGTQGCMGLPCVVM

Structure (SMILES)	HRAS/KRAS (ratio of KD value for HRAS to KD value for KRAS) [1]	IC50 [2] [nM]	NRAS/KRAS (ratio of KD value for NRAS to KD value for KRAS) [3]	Kd [4] [nM]
CCOC[C@H]1C(=O)N[C@@H]([C@@H](C)OCC)C(=O)N2CCC[C@H]2C(=O)N(C)[C@H]2C/C=C\CCN(C2=O)[C@@H](Cc2ccc(C)cc2)C(=O)N(C)CC(=O)N[C@@H](CCc2ccc(C(F)(F)F)c(OC)c2)C(=O)N2C[C@@H](C)C[C@H]2C(=O)NC2(CC(C)(C)C2)C(=O)N(C)[C@@H](C2CCCC2)C(=O)N(C)[C@H](C(=O)N(C)CC)CC(=O)N1C [PP2433]	A (a compound having 10 or more and less than 20 is denoted as A)	120	AA (a compound having 20 or more is denoted as AA)	2.1
CCCO[C@H](C)[C@@H]1NC(=O)[C@H](COCC)N(C)C(=O)C[C@@H](C(=O)N(C)CC)N(C)C(=O)[C@H](C2CCCC2)N(C)C(=O)C2(CC(C)(C)C2)NC(=O)[C@@H]2C[C@@H](OCC)CN2C(=O)[C@H](CCc2cc(F)c(C(F)(F)F)c(F)c2)NC(=O)CN(C)C(=O)[C@H](Cc2ccc(C)cc2)N2CC/C=C\C[C@@H](C2=O)N(C)C(=O)[C@@H]2CCCN2C1=O [PP2436]	A (a compound having 10 or more and less than 20 is denoted as A)	126	A (a compound having 10 or more and less than 20 is denoted as A)	1.6
CC[C@H](C)[C@@H]1NC(=O)[C@H](COC)N(C)C(=O)C[C@@H](C(=O)N(C)CC)N(C)C(=O)[C@H](C2CCCC2)N(C)C(=O)C2(CC(C)(C)C2)NC(=O)[C@@H]2C[C@H](C)CN2C(=O)[C@H](CCc2cc(F)c(C(F)(F)F)c(F)c2)NC(=O)CN(C)C(=O)[C@H](Cc2ccc(C)cc2)N2CC/C=C\C[C@@H](C2=O)N(C)C(=O)CN(C)C1=O [PP2437]	A (a compound having 10 or more and less than 20 is denoted as A)	18.8	A (a compound having 10 or more and less than 20 is denoted as A)	0.12
CCO[C@@H]1C[C@H]2C(=O)NC3(CC(C)(C)C3)C(=O)N(C)[C@@H](C(CC)CC)C(=O)N(C)[C@H](C(=O)N(C)C)CC(=O)N(C)[C@@H](COC)C(=O)N[C@@H]([C@@H](C)CC)C(=O)N(C)CC(=O)N(C)[C@H]3C/C=C\CCN(C3=O)[C@@H](CC3CCC(F)(F)CC3)C(=O)N(C)CC(=O)N[C@@H](CCc3ccc(C(F)(F)F)c(OC)c3)C(=O)N2C1 [PP2438]	A (a compound having 10 or more and less than 20 is denoted as A)	41.4	A (a compound having 10 or more and less than 20 is denoted as A)	0.64
CCOC[C@H]1C(=O)N[C@@H]([C@@H](C)CC)C(=O)N(C)CC(=O)N(C)[C@H]2C/C=C\CCN(C2=O)[C@@H](Cc2ccc(C)cc2)C(=O)N(C)CC(=O)N[C@@H](CCc2cc(F)c(C(F)(F)F)c(F)c2)C(=O)N2C[C@@H](C)C[C@H]2C(=O)NC2(CC(C)(C)C2)C(=O)N(C)[C@@H](C2CCCC2)C(=O)N(C)[C@H](C(=O)N(C)C)CC(=O)N1C [PP2439]	A (a compound having 10 or more and less than 20 is denoted as A)	6.6	A (a compound having 10 or more and less than 20 is denoted as A)	0.12
CCO[C@@H]1C[C@H]2C(=O)NC3(CC(C)(C)C3)C(=O)N(C)[C@@H](C(CC)CC)C(=O)N(C)[C@H](C(=O)N(C)C)CC(=O)N(C)[C@@H](COC)C(=O)N[C@@H]([C@@H](C)CC)C(=O)N(C)CC(=O)N(C)[C@H]3C/C=C\CCN(C3=O)[C@@H](CC3CCC(F)(F)CC3)C(=O)N(C)CC(=O)N[C@@H](CCc3cc(F)c(C(F)(F)F)c(F)c3)C(=O)N2C1 [PP2440]	A (a compound having 10 or more and less than 20 is denoted as A)	20.1	A (a compound having 10 or more and less than 20 is denoted as A)	0.44
CC[C@H](C)[C@@H]1NC(=O)[C@H](COC)N(C)C(=O)C[C@@H](C(=O)N(CC)CC)N(C)C(=O)[C@H](C2CCCC2)N(C)C(=O)C2(CC(C)(C)C2)NC(=O)[C@@H]2C[C@H](C)CN2C(=O)[C@H](CCc2ccc(C(F)(F)F)c(OC)c2)NC(=O)CN(C)C(=O)[C@H](Cc2ccc(C)cc2)N2CC/C=C\C[C@@H](C2=O)N(C)C(=O)CN(C)C1=O [PP2441]	A (a compound having 10 or more and less than 20 is denoted as A)	22.9	AA (a compound having 20 or more is denoted as AA)	0.29
CCC(CC)[C@H]1C(=O)N(C)[C@H](C(=O)N(C)C)CC(=O)N(C)[C@@H](COC)C(=O)N[C@@H]([C@@H](C)CC)C(=O)N(C)CC(=O)N(C)[C@H]2C/C=C\CCN(C2=O)[C@@H](CC2CCC(F)(F)CC2)C(=O)N(C)CC(=O)N[C@@H](CCc2ccc(C(F)(F)F)c(OC)c2)C(=O)N2C[C@@H](C)C[C@H]2C(=O)NC2(CC(C)(C)C2)C(=O)N1C [PP2442]	A (a compound having 10 or more and less than 20 is denoted as A)	79.7	A (a compound having 10 or more and less than 20 is denoted as A)	0.97
CCO[C@@H]1C[C@H]2C(=O)NC3(CC(C)(C)C3)C(=O)N(C)[C@@H](C(CC)CC)C(=O)N(C)[C@H](C(=O)N(C)C)CC(=O)N(C)[C@@H](COC)C(=O)N[C@@H]([C@@H](C)CC)C(=O)N(C)CC(=O)N(C)[C@H]3C/C=C\CCN(C3=O)[C@@H](CC3CCC(F)(F)CC3)C(=O)N(C)CC(=O)N[C@@H](CCc3ccc(C(F)(F)F)c(Cl)c3)C(=O)N2C1 [PP2444]	A (a compound having 10 or more and less than 20 is denoted as A)	32.3	A (a compound having 10 or more and less than 20 is denoted as A)	0.59
CCOC[C@H]1C(=O)N[C@@H]([C@@H](C)CC)C(=O)N(C)CC(=O)N(C)[C@H]2C/C=C\CCN(C2=O)[C@@H](Cc2ccc(C)cc2)C(=O)N(C)CC(=O)N[C@@H](CCc2ccc(C(F)(F)F)c(OC)c2)C(=O)N2C[C@H](OCC)C[C@H]2C(=O)NC2(CC(C)(C)C2)C(=O)N(C)[C@@H](C2CCCC2)C(=O)N(C)[C@H](C(=O)N(C)CC)CC(=O)N1C [PP2445]	B (a compound having 3 or more and less than 10 is denoted as B)	11.7	A (a compound having 10 or more and less than 20 is denoted as A)	0.14
CCOC[C@H]1C(=O)N[C@@H]([C@@H](C)CC)C(=O)N(C)CC(=O)N(C)[C@H]2C/C=C\CCN(C2=O)[C@@H](CC2CCC(F)(F)CC2)C(=O)N(C)CC(=O)N[C@@H](CCc2ccc(C(F)(F)F)c(OC)c2)C(=O)N2C[C@H](OCC)C[C@H]2C(=O)NC2(CC(C)(C)C2)C(=O)N(C)[C@@H](C(CC)CC)C(=O)N(C)[C@H](C(=O)N(C)C)CC(=O)N1C [PP2446]	A (a compound having 10 or more and less than 20 is denoted as A)	124	A (a compound having 10 or more and less than 20 is denoted as A)	0.81
CCCOC[C@H]1C(=O)N[C@@H]([C@@H](C)CC)C(=O)N(C)CC(=O)N(C)[C@H]2C/C=C\CCN(C2=O)[C@@H](Cc2ccc(C)cc2)C(=O)N(C)CC(=O)N[C@@H](CCc2ccc(C(F)(F)F)c(OC)c2)C(=O)N2C[C@@H](C)C[C@H]2C(=O)NC2(CC(C)(C)C2)C(=O)N(C)[C@@H](C2CCCC2)C(=O)N(C)[C@H](C(=O)N(C)C)CC(=O)N1C [PP2447]	B (a compound having 3 or more and less than 10 is denoted as B)	8.6	A (a compound having 10 or more and less than 20 is denoted as A)	0.11
CCC(CC)[C@H]1C(=O)N(C)[C@H](C(=O)N(C)C)CC(=O)N(C)[C@@H](COC)C(=O)N[C@@H]([C@@H](C)CC)C(=O)N(C)CC(=O)N(C)[C@H]2C/C=C\CCN(C2=O)[C@@H](CC2CCC(F)(F)CC2)C(=O)N(C)CC(=O)N[C@@H](CCc2cc(F)c(C(F)(F)F)c(F)c2)C(=O)N2C[C@@H](C)C[C@H]2C(=O)NC2(CC(C)(C)C2)C(=O)N1C [PP2448]	A (a compound having 10 or more and less than 20 is denoted as A)	26.9	A (a compound having 10 or more and less than 20 is denoted as A)	1.4
CCCOC[C@H]1C(=O)N[C@@H]([C@@H](C)CC)C(=O)N(C)CC(=O)N(C)[C@H]2C/C=C\CCN(C2=O)[C@@H](Cc2ccc(C)cc2)C(=O)N(C)CC(=O)N[C@@H](CCc2ccc(C(F)(F)F)c(OC)c2)C(=O)N2C[C@H](OCC)C[C@H]2C(=O)NC2(CC(C)(C)C2)C(=O)N(C)[C@@H](C2CCCC2)C(=O)N(C)[C@H](C(=O)N(C)C)CC(=O)N1C [PP2449]	A (a compound having 10 or more and less than 20 is denoted as A)	7.8	A (a compound having 10 or more and less than 20 is denoted as A)	0.061
CCOC[C@H]1C(=O)N[C@@H]([C@@H](C)CC)C(=O)N(C)CC(=O)N(C)[C@H]2C/C=C\CCN(C2=O)[C@@H](CC2CCC(F)(F)CC2)C(=O)N(C)CC(=O)N[C@@H](CCc2cc(F)c(C(F)(F)F)c(F)c2)C(=O)N2C[C@H](OCC)C[C@H]2C(=O)NC2(CC(C)(C)C2)C(=O)N(C)[C@@H](C(CC)CC)C(=O)N(C)[C@H](C(=O)N(C)C)CC(=O)N1C [PP2450]	A (a compound having 10 or more and less than 20 is denoted as A)	29.2	A (a compound having 10 or more and less than 20 is denoted as A)	0.55

Reference: patent US20240158446A1, “CYCLIC COMPOUND HAVING SELECTIVE INHIBITORY ACTION ON KRAS OVER HRAS AND NRAS” (CHUGAI SEIYAKU KABUSHIKI KAISHA, priority 2021, published 2024)
